Measurements: patent US20140357512A1, “HISTONE DEACETYLASE (HDAC) BIOMARKERS IN MULTIPLE MYELOMA” (priority 2013, published 2014)

Tested on: human myeloma cell line MM.1S
Assay: SILAC acetylated-lysine peptide profiling, HDAC inhibitor vs DMSO (light/heavy ratio)
Assay type: cell-based
From the text: An embodiment of the invention comprises utilizing the SILAC method in order to quantitate changes in protein expression between two or more populations of cells. The SILAC method is a technique based on mass spectrometry that detects differences in protein abundance among samples using non-radioactive isotopic labeling. The SILAC method is known in the art, and described in detail in Ong et al., “Stable Isotope Labeling by Amino Acids in Cell Culture, SILAC, as a Simple and Accurate Approach to Expression Proteomics”, Molecular & Cellular Proteomics, vol. 1, pp. 376-386 (2002), which is incorporated herein by reference in its entirety.
Briefly, the SILAC method involves growing two populations of cells in cell culture. The first population of cells is grown in growth media containing normal amino acids (“normal media”). The second population of cells is grown in media lacking a standard essential amino acid (such as lysine), but is then supplemented with a non-radioactive, isotopically labeled form of that essential amino acid (such as lysine labeled with ^13C atoms, rather than normal ^12C atoms), which is called “heavy media”. When the two populations of cells are each growing in the medium, they incorporate the amino acids into all of their proteins. The growth of cells maintained in the heavy media is no different from that in normal media. All peptides containing the heavy amino acids are heavier than their normal counterparts. The cells from each of the two populations of cells are lysed. The lysates from each of the two cell populations are then combined. The combined cell lysates are then analyzed by mass spectrometry. Pairs of chemically identical peptides of different stable isotope composition can be differentiated in a mass spectrometer due to their difference in mass. The ratio of peak intensities in the mass spectrum for such peptide pairs reflects the abundance ratio for the two proteins.
This example describes SILAC studies that were performed to compare the effects of three different HDAC inhibitors (Compound A, Compound B, and tubastatin A) to a control on a human multiple myeloma cell line. The HDAC inhibitors were also compared amongst themselves to determine differences in their effects.
A human myeloma cell line MM.1S was grown using either ^12C (light) or ^13C (heavy) lysine containing culture medium. The “heavy” cells were treated with DMSO as the control, and the “light” cells were treated with a single HDAC inhibitor at 37° C. for 6 hours. The heavy and light cells were lysed, and the lysates were mixed in 1:1 ratio and digested with the protease trypsin. The acetylated lysine containing peptides (due to the action of the HDAC inhibitor) in the digested peptide pool were captured by a non-specific anti-acetylated lysine antibody cocktail (the antibodies identify both light and heavy acetylated peptides), and subjected to mass spectrometry analysis in order to identify thousands of individual peptides.
Thousands of peptides were identified in pairs (^12C and ^13C) due to their known mass differences. The amino acid sequence and quantitative ratio (Light/Heavy) of a given peptide in two differentially treated cell lysates were then determined and annotated with their possible protein (gene) sources.
As stated above, three HDAC inhibitors (Compound A, Compound B, and Tubastatin A) were used. Thus, the SILAC method was performed three times, with a different HDAC inhibitor compared to a control each time. Accordingly, there are three pairs of quantitative data in the table below, i.e., Compound A:DMSO, Compound B:DMSO, and Tubastatin A:DMSO. A cut-off of 1.30 fold of change (increase or decrease) was then used to determine “changed” or “+” in the table, and any peptides with a fold of change less than 1.3 fold were determined to be “unchanged” or “0” in the table. Those peptides that were not identified were marked as “NA” in the table. […]

## CN1CCc2c(c3ccccc3n2Cc2ccc(C(=O)NO)cc2)C1 [Tub A]
Heterogeneous nuclear ribonucleoprotein U-like protein 2 [553], gene HNRNPUL2, inhibitor:DMSO
  light to heavy ratio (L/H ratio) of acetylated peptide LLLFK(ac)TFSR (SEQ ID NO: 514): 0.00 log 2
Histone H2B type 1-M [16:17], gene HIST1H2BM, drug:DMSO
  light to heavy ratio (L/H ratio), log 2 scale, acetylated peptide GSK(ac)K(ac)AINK (SEQ ID NO: 792): 0.00
Histone H2B type 1-M [17:21], gene HIST1H2BM, drug:DMSO
  light to heavy ratio (L/H ratio), log 2 scale, acetylated peptide K(ac)AINK(ac)AQK (SEQ ID NO: 793): 0.00
Histone H2B type 2-E [6:12], HIST2H2BE, drug:DMSO
  light to heavy ratio (L/H ratio) of acetylated peptide PEPAK(ac)SAPAPK(ac)K (SEQ ID NO: 309): 0.58 log 2
Histone H2B type 2-E [21:24], gene HIST2H2BE, inhibitor:DMSO
  light to heavy ratio (L/H ratio) of acetylated peptide AVTK(ac)AQK(ac)K (SEQ ID NO: 560): 0.00 log 2
Histone H3.2 [10:15], HIST2H3D, HIST2H3A, HIST2H3C, drug:DMSO
  light to heavy ratio (L/H ratio) of acetylated peptide K(ac)STGGK(ac)APR (SEQ ID NO: 310): 0.46 log 2
Histone H3.2 [19:24], gene HIST2H3D, HIST2H3A, HIST2H3C, drug:DMSO
  light to heavy ratio (L/H ratio), log 2 scale, acetylated peptide K(ac)QLATK(ac)AAR (SEQ ID NO: 796): 0.00
Histone H4 [6:9], HIST2H4B, HIST1H4C and other H4 genes, drug:DMSO
  light to heavy ratio (L/H ratio) of acetylated peptide GK(ac)GGK(ac)GLGK (SEQ ID NO: 311): 0.49 log 2
Histone H4 [13:17], HIST2H4B, HIST1H4C and other H4 genes, drug:DMSO
  light to heavy ratio (L/H ratio) of acetylated peptide GLGK(ac)GGAK(ac)R (SEQ ID NO: 312): 0.49 log 2
Histone H4 [13], HIST2H4B, HIST1H4C and other H4 genes, drug:DMSO
  light to heavy ratio (L/H ratio) of acetylated peptide GLGK(ac)GGAKR (SEQ ID NO: 313): −0.62 log 2
Hydroxymethylglutaryl-CoA lyase mitochondrial [48], HMGCL, drug:DMSO
  light to heavy ratio (L/H ratio) of acetylated peptide DGLQNEK(ac)NIVSTPVK (SEQ ID NO: 268): 0.40 log 2
Hydroxymethylglutaryl-CoA lyase mitochondrial [137], gene HMGCL, inhibitor:DMSO
  light to heavy ratio (L/H ratio) of acetylated peptide K(ac)NINCSIEESFQR (SEQ ID NO: 594): 0.00 log 2
IFVGGLSPDTPEEK(ac)IR (SEQ ID NO: 166), Isoform 1 of Heterogeneous nuclear ribonucleoprotein D0 [197], HNRNPD
  light to heavy ratio (L/H ratio) of acetylated peptide, log 2 scale: −0.78
IGFGSFVDK(ac)TVLPFVSTVPSK (SEQ ID NO: 180), Isoform Long of Integrin beta-7 [199], ITGB7
  light to heavy ratio (L/H ratio) of acetylated peptide, log 2 scale: −0.40
IGIEIIK(ac)R (SEQ ID NO: 174), 60 kDa heat shock protein mitochondrial [469], HSPD1
  light to heavy ratio (L/H ratio) of acetylated peptide, log 2 scale: −0.42
IGLV2-14, IGLC2 [208], log 2 scale, drug vs DMSO
  L/H ratio of acetylated peptide YAASSYLSLTPEQWK(ac)SHR (SEQ ID NO: 56): −0.63
IMK(ac)DLDQCR (SEQ ID NO: 217), Protein S100-A10 [57], S100A10
  light to heavy ratio (L/H ratio) of acetylated peptide, log 2 scale: 0.72
IQDK(ac)EGIPPDQQR (SEQ ID NO: 212), Ubiquitin-40S ribosomal protein S27a [33], RPS27A
  light to heavy ratio (L/H ratio) of acetylated peptide, log 2 scale: −0.50
ISK(ac)EVLAGR (SEQ ID NO: 167), Isoform Short of Heterogeneous nuclear ribonucleoprotein U [417], HNRNPU
  light to heavy ratio (L/H ratio) of acetylated peptide, log 2 scale: −0.75
IVQK(ac)HPHTGDTKEEK (SEQ ID NO: 489), Death-associated protein 1 [29], DAP
  L/H ratio of acetylated peptide: 0.00 log 2
IYFTDSSSK(ac)WQR (SEQ ID NO: 138), Isoform 1 of Adipocyte plasma membrane-associated protein [220], C20orf3
  light to heavy ratio (L/H ratio) of acetylated peptide, log 2 scale: −0.59
Inactive hydroxysteroid dehydrogenase-like protein 1 [64], gene HSDL1, drug:DMSO
  light to heavy ratio (L/H ratio), log 2 scale, acetylated peptide ADLIK(ac)QYGR (SEQ ID NO: 798): 0.00
Isocitrate dehydrogenase [NADP] mitochondrial [180], gene IDH2, inhibitor:DMSO
  light to heavy ratio (L/H ratio) of acetylated peptide HAHGDQYK(ac)ATDFVADR (SEQ ID NO: 574): 0.00 log 2
Isocitrate dehydrogenase [NADP] mitochondrial [193], gene IDH2, inhibitor:DMSO
  light to heavy ratio (L/H ratio) of acetylated peptide AGTFK(ac)MVFTPK (SEQ ID NO: 606): 0.00 log 2
Isoform 1 of 39S ribosomal protein L47 mitochondrial [144], MRPL47, drug:DMSO
  light to heavy ratio (L/H ratio) of acetylated peptide VVDSMDALDK(ac)VVQER (SEQ ID NO: 318): 0.45 log 2
Isoform 1 of 40S ribosomal protein S24 [37], RPS24, drug:DMSO
  light to heavy ratio (L/H ratio) of acetylated peptide ATVPK(ac)TEIR (SEQ ID NO: 272): −0.44 log 2
Isoform 1 of 60S ribosomal protein L11 [85], gene RPL11, inhibitor:DMSO
  light to heavy ratio (L/H ratio) of acetylated peptide AEEILEK(ac)GLK (SEQ ID NO: 547): 0.00 log 2
Isoform 1 of 60S ribosomal protein L11 [159], RPL11, drug:DMSO
  light to heavy ratio (L/H ratio) of acetylated peptide ISK(ac)EEAMR (SEQ ID NO: 299): −0.48 log 2
Isoform 1 of ATP synthase subunit d mitochondrial [72], ATP5H, drug:DMSO
  light to heavy ratio (L/H ratio) of acetylated peptide AGLVDDFEK(ac)K (SEQ ID NO: 301): 0.66 log 2
Isoform 1 of ATP synthase subunit d mitochondrial [85], ATP5H, drug:DMSO
  light to heavy ratio (L/H ratio) of acetylated peptide VPVPEDK(ac)YTAQVDAEEKEDVK (SEQ ID NO: 290): 0.50 log 2
Isoform 1 of Dedicator of cytokinesis protein 2 [738], gene DOCK2, inhibitor:DMSO
  light to heavy ratio (L/H ratio) of acetylated peptide TLK(ac)ALEYVFK (SEQ ID NO: 516): 0.00 log 2
Isoform 1 of E3 UFM1-protein ligase 1 [614], gene UFL1, drug:DMSO
  light to heavy ratio (L/H ratio), log 2 scale, acetylated peptide ILSK(ac)LSEETK (SEQ ID NO: 759): 0.00
Isoform 1 of Heat shock cognate 71 kDa protein [601], gene HSPA8, inhibitor:DMSO
  light to heavy ratio (L/H ratio) of acetylated peptide ELEK(ac)VCNPIITK (SEQ ID NO: 612): 0.00 log 2
Isoform 1 of Histone-lysine N-methyltransferase MLL3 [2809], gene MLL3, inhibitor:DMSO
  light to heavy ratio (L/H ratio) of acetylated peptide TLVLSDK(ac)HSPQK (SEQ ID NO: 523): 0.00 log 2
Isoform 1 of Hydroxyacyl-coenzyme A dehydrogenase mitochondrial [127], gene HADH, inhibitor:DMSO
  light to heavy ratio (L/H ratio) of acetylated peptide VK(ac)NELFK (SEQ ID NO: 565): 0.00 log 2
Isoform 1 of Hydroxyacyl-coenzyme A dehydrogenase mitochondrial [301], HADH, drug:DMSO
  light to heavy ratio (L/H ratio) of acetylated peptide LVAENK(ac)FGK (SEQ ID NO: 296): −0.43 log 2
Isoform 1 of L-lactate dehydrogenase A chain [318], LDHA, drug:DMSO
  light to heavy ratio (L/H ratio) of acetylated peptide K(ac)SADTLWGIQK (SEQ ID NO: 316): 1.00 log 2
Isoform 1 of N-alpha-acetyltransferase 50 NatE catalytic subunit [37], gene NAA50, inhibitor:DMSO
  light to heavy ratio (L/H ratio) of acetylated peptide FYK(ac)DVLEVGELAK (SEQ ID NO: 596): 0.00 log 2
Isoform 1 of Peripherin [288], gene PRPH, drug:DMSO
  light to heavy ratio (L/H ratio), log 2 scale, acetylated peptide NLQEAEEWYK(ac)SK (SEQ ID NO: 767): 0.00
Isoform 1 of Protein MB21D1 [414], gene MB21D1, inhibitor:DMSO
  light to heavy ratio (L/H ratio) of acetylated peptide LMK(ac)YLLEQLK (SEQ ID NO: 585): 0.00 log 2
Isoform 1 of Protein SET [154], SET, drug:DMSO
  light to heavy ratio (L/H ratio) of acetylated peptide VLSK(ac)EFHLNESGDPSSK (SEQ ID NO: 294): −1.00 log 2
Isoform 1 of RNA-binding protein with serine-rich domain 1 [218], RNPS1, drug:DMSO
  light to heavy ratio (L/H ratio) of acetylated peptide GYAYVEFENPDEAEK(ac)ALK (SEQ ID NO: 349): 0.00 log 2
Isoform 1 of Signal recognition particle 9 kDa protein [52], gene SRP9, drug:DMSO
  light to heavy ratio (L/H ratio), log 2 scale, acetylated peptide […](ac)TDQAQDVK (SEQ ID NO: 765): 0.00
Isoform 1 of UDP-N-acetylglucosamine--dolichyl-phosphate N-acetylglucosaminephosphotransferase [320], DPAGT1, drug:DMSO
  light to heavy ratio (L/H ratio) of acetylated peptide LEMSYSK(ac)FK (SEQ ID NO: 304): 0.48 log 2
